Measurements as given in article PMC7771846 (Biomolecules & Therapeutics, 2020).

Biological target: Hsp90α (Homo sapiens, UniProt P07900)
Assay: SPR
Type: binding

**Q.** With `CN1C(=O)[C@@]23C[C@]4([C@]56C[C@@]78SS[C@@](CO)(C(=O)N7[C@H]5Nc5ccccc56)N(C)C8=O)c5ccccc5N[C@@H]4N2C(=O)[C@]1(CO)SS3` [Chaetocin] as the compound, how does the Kd read?
**A.** 2820 nM
